How the values were obtained:
[1] = target: T1, uPA (Homo sapiens, UniProt P00749); settings: read-out: uPA Ki; value taken from earlier paper; cited from earlier work
[2] = target: T1, uPA
[3] = system: 85 serine hydrolases; settings: 5 nM-33 μM
[4] = target: T2, epithelial sodium channels (ENaCs) (Homo sapiens, UniProt P37088+P51168+P51170); settings: compounds at 10 μM, n = 4
T2 sequence (P37088 1-669): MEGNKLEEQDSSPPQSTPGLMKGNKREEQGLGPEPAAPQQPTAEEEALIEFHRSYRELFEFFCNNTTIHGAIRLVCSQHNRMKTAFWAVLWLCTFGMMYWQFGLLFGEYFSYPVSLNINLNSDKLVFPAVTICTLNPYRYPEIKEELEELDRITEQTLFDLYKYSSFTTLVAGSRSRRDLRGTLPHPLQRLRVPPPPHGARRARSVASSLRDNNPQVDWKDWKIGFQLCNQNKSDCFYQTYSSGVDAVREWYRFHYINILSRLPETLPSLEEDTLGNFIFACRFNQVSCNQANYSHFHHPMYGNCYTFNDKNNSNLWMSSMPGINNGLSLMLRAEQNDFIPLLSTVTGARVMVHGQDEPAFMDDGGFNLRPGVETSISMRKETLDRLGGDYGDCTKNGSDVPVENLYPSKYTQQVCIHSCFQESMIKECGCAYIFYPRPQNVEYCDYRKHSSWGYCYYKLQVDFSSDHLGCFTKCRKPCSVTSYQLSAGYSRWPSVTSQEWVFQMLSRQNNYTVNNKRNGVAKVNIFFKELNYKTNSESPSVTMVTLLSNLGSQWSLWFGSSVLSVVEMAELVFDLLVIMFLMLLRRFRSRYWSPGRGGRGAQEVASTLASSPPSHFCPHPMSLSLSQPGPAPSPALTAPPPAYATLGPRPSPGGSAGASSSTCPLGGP
T2 sequence (P51168 1-640): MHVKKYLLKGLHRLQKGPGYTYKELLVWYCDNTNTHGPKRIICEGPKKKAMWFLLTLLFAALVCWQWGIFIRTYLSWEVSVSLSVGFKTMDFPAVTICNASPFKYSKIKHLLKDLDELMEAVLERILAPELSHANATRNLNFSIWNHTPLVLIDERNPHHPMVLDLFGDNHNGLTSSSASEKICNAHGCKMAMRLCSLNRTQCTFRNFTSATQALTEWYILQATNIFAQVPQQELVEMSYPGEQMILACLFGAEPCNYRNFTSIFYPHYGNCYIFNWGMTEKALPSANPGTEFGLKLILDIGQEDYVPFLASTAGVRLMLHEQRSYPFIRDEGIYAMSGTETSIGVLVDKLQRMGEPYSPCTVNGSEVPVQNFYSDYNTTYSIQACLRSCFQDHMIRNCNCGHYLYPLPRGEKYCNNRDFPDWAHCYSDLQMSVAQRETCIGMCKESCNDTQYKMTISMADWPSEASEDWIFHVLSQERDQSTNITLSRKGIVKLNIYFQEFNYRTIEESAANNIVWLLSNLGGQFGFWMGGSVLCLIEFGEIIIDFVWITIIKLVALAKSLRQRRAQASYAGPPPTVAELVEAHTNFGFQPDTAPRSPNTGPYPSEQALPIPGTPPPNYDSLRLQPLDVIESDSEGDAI
T2 sequence (P51170 1-649): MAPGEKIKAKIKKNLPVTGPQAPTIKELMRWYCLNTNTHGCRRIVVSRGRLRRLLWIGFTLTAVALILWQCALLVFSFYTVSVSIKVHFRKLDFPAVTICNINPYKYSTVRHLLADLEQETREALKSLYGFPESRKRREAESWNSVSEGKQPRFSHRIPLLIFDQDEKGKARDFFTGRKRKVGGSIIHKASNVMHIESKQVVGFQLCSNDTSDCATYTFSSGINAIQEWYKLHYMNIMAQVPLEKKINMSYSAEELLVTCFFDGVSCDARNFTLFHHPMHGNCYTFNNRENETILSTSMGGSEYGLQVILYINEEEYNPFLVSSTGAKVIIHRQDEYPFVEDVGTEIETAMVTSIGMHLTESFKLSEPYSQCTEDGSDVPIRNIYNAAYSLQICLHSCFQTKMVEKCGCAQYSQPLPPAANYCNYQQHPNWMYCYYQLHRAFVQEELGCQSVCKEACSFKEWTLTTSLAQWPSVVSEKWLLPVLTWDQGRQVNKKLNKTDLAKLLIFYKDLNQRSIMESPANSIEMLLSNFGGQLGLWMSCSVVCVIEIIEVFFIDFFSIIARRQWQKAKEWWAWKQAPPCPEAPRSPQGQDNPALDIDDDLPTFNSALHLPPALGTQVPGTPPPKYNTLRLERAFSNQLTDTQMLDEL

[5] = system: panel of mammalian cell lines; settings: concentrations up to 100 μM
[6] = system: Sprague Dawley rats; settings: 25 mg/kg acetazolamide IV then 1.5 mg/kg compound IP, n = 8

Row | SMILES | uPA potency relative to amiloride (in words) [2] | fold increase in uPA activity relative to amiloride ([2]; from Ki values) [fold] | also measured
1 | COc1ncc(-c2nc(C(=O)NC(=N)N)c(N)nc2N2CCCCCC2)c(OC)n1 [6-(2,4-dimethoxypyrimidin-5-yl)-5-(N,N-hexamethylene) amiloride] |  |  | Ki [1]: 42 nM
2 | N=C(N)NC(=O)c1nc(-c2ccccc2)c(N)nc1N [Compound 3] | did not improve potency |  | 
3 | CSc1ccc(-c2nc(C(=O)NC(=N)N)c(N)nc2N)cc1 [Compound 4] | did not improve potency |  | 
4 | N=C(N)NC(=O)c1nc(-c2ccc(C(F)(F)F)cc2)c(N)nc1N [Compound 5] | did not improve potency |  | 
5 | COc1ncc(-c2nc(C(=O)NC(=N)N)c(N)nc2N)cn1 [Compound 7] |  |  | inhibition of serine hydrolases in EnPlex assay (in words) [3]: High uPA selectivity; ENaC activity (in words) [4]: Complete loss of ENaC activity; cytotoxicity across the cell line panel (in words) [5]: much less toxic; effect on Na+/K+ excretion / solute concentrations (in words) [6]: no significant effect; effect on diuresis (in words) [6]: no significant effect
6 | COc1ncc(-c2nc(C(=O)NC(=N)N)c(N)nc2N)c(OC)n1 [Compound 8] | only a modest increase in activity |  | 
7 | COc1ccc(-c2nc(C(=O)NC(=N)N)c(N)nc2N)c(OC)n1 [Compound 9] |  | 2 | 
8 | N=C(N)NC(=O)c1nc(-c2cccs2)c(N)nc1N [Compound 10] |  | 2 | 
9 | N=C(N)NC(=O)c1nc(-c2ccco2)c(N)nc1N [Compound 11] |  | 3.3 | 
10 | N=C(N)NC(=O)c1nc(-c2cc3ccccc3s2)c(N)nc1N [Compound 14] |  | 1.7 | 
11 | N=C(N)NC(=O)c1nc(-c2cc3cc(Br)ccc3o2)c(N)nc1N [Compound 19] |  |  | fold decrease in uPA activity relative to amiloride ([2]; from Ki values): 1.5 fold; fold loss of uPA activity relative to 15 ([2]; from Ki values): ~ 12 fold
12 | N=C(N)NC(=O)c1nc(-c2ccc3occc3c2)c(N)nc1N [Compound 23] |  |  | uPA potency relative to 15 (in words) [2]: only a small decrease in potency
13 | N=C(N)NC(=O)c1nc(-c2ccc3c(c2)CCO3)c(N)nc1N [Compound 24] | slight increase |  | 
